Here are results for 15 compounds from patent publication US4543254A, “Antiphlogistic/antipyretic/analgesic agents containing theobromine or theophylline derivatives as active ingredient” (Eisai Co., Ltd., priority 1982, dated 1985).

Data set [1] in a line: Analgesic activity: acetic acid writhing method (mice). It counts as in vivo, ddy-strain male mice. The settings on record: Mus musculus, po. Here is the method:
(a) Acetic acid writhing method^1
A 0.7% acetic acid solution was injected intraperitoneally to ddy-strain male mice (20 to 25 g) in an amount of 0.1 ml per 10 g mouse body weight to cause a writhing syndrome typified by stretching of the hind legs. The inhibitory action of each test compound against said symptom was observed as a measure of the analgesic activity of the compound.
(1) Hendershot, L. C. and Forsaith, J.: J. Pharmacol. Exp. Ther., 125, 237 (1959).
(2) Litchfield, Jr., J. T. and Wilcoxon, F.: J. Pharmacol. Exp. Ther., 96, 99 (1949).
A general note: In writhing tests, fewer writhes than in controls are read as antinociception.

Data set [2] can be described thus: in vivo. The settings on record: po, p.o., read-out: Safety margin (LD50/ED50). On the procedure: Ten mice were used for each dose and morality was determined for 3 days after administration of each test compound of the invention. In the case of the rats, 5 rats were used for each dose and morality was determined 7 days after administrations.
Data set [3] is described as follows: Antipyretic activity: dry yeast-induced fever (rats). The data set is classed as in vivo, SD male rats. The settings on record: Rattus norvegicus, po, read-out: ED, effective dose for reducing the fever by more than 1° C. when the compound action is at the peak. On the procedure: A 2% suspension of dry yeast was injected sub-Cutaneously to SD male rats of 250 to 300 g body weight in an amount of 2 ml/animal to cause a fever, and 4 hours later, the compounds of this invention and control drugs were administered orally. The rectal temerature of each rat was measured periodically, and the dosage of each compound required to reduce the fever by more than 1° C. at the peak of its activity was determined.

Data set [4] can be described thus: Analgesic activity: bradykinin-induced pain response (rats). It counts as in vivo, SD male rats. The following applies: Rattus norvegicus, po, read-out: Analgesic activity ED50. On the procedure: (B) Bradykinin-induced pain response^3,4
A polyethylene tube was inserted into a common right carotid artery of SD male rats (250 to 350 g) and 0.5 microngram per 0.1 ml of bradykinin was injected into the artery through said tube. Response induced by bradykinin such as flexin of the right forelimb, dextro-rotation of the head and rearing were considered as being indices of pain response, and the analgesic action of each test compound was determined by observing its inhibition of responses such symptoms.
(3) T. Abe, T. Kaneko and H. Takagi: Japan Pharm. Soc. Bul., 67, 9-14 (1971)
(4) G. F. Blane: J. Pharma. Pharmacol., 19, 367 (1967)

Data set [5] is described as follows: Antiphlogistic activity: carrageenin paw edema (rats). It counts as in vivo, Wistar rats. The following applies: Rattus norvegicus, po, 3 hours. On the procedure:
(3) Antiphlogistic activity^5
Each test compound of this invention was administered orally to Wistar rats of about 300 g body weight, and 30 minutes later 0.05 ml of a 1% carrageenin solution was injected into a paw of each rat. After three hours, the paw volume was measured to determine the degree of edema formation and the 30% effective dose (ED30) was calculated from the inhibition rate relative to a control group.
(5) R. Vinegar et al: J. Pharmacol. Exp. Ther., 166, 96 (1969)
On the technique in general: In the carrageenan paw model, swelling and tenderness develop within hours.

In data set [6] the test system is SD male rats. The settings on record: p.o., control drugs, given in Japan National Formulary, 6th Ed. (1982); cited from earlier work.
Data set [7] relates to ddy male mice. The settings on record: p.o., control drugs, given in Japan National Formulary, 6th Ed. (1982); cited from earlier work.
Setting [8] is: rats, p.o., bradykinin-induced pain.

Where two headings read alike, the source gives them in different places. Some results are limits rather than exact numbers.

In turn, `COc1ccccc1N1CCN(CCCCn2c(=O)c3c(ncn3C)n(C)c2=O)CC1` [Compound D', 1-(4-(4-o-methoxyphenylpiperazinyl-(1))-n-butyl)theobromine.2HCl] gave an ED50 in data set [1] of 3.1 mg/kg. Besides, the selectivity ratio in data set [2] (mouse, mice) is 130 to 258.
As to `Cc1ccc(N2CCN(CCCn3cnc4c3c(=O)n(C)c(=O)n4C)CC2)cc1C` [Compound C], the ED50 in data set [1] was 13.3 mg/kg; in data set [4] (setting [8]), 57 mg/kg. Further, the selectivity ratio was more than 60 in data set [2] (mouse, mice) and 13.6 in data set [2] (rat, rats). Further, the minimal effective dose in data set [3] was 10 mg/kg.
In data set [5], `Cn1cnc2c1c(=O)n(CCCCN1CCN(c3ccc(F)cc3)CC1)c(=O)n2C` [Compound E', 1-(4-(4-p-fluorophenylpiperazinyl-(1))-n-butyl)theobromie.2HCl] came in with an ED30 of 25 mg/kg. In data set [1], this compound yielded a 50% effective dose (ED50) of 7.8 mg/kg. In data set [2] (mouse, mice), the selectivity ratio was determined as 26.
`Cn1c(=O)c2c(ncn2CCCCN2CCN(c3ccc(F)cc3)CC2)n(C)c1=O` [Compound A]: the ED30 in data set [5] was determined as 10 mg/kg. Also, the ED50 is 10 mg/kg in data set [1] and 47 mg/kg in data set [4] (setting [8]). The selectivity ratio in data set [2] (mouse, mice) was 34; in data set [2] (rat, rats), 7.5 to 10.6. Besides, the minimal effective dose in data set [3] was found to be 10 mg/kg.
In the case of `Cn1c(=O)c2c(ncn2CCCCCN2CCN(c3ccc(Cl)cc3)CC2)n(C)c1=O` [Compound B], the ED30 in data set [5] turned out to be 50 mg/kg. Moreover, the ED50 in data set [1] is 13.8 mg/kg; in data set [4] (setting [8]), 40 mg/kg. In addition, the selectivity ratio is 51 in data set [2] (mouse, mice) and 8.8 to 12.5 in data set [2] (rat, rats). In addition, the minimal effective dose in data set [3] came out at 40 mg/kg.
In the case of `Cn1cnc2c1c(=O)n(CCCN1CCN(c3ccccc3Cl)CC1)c(=O)n2C` [Compound C', 1-(3-(4-o-chlorophenylpiperazinyl-(1))-n-propyl)theobromine.2HCl], the ED30 in data set [5] came out at 10 mg/kg. In data set [1], this compound registered an ED50 of 3.3 mg/kg. In addition, the selectivity ratio in data set [2] (mouse, mice) came out at 61.
In data set [5], `Cn1c(=O)c2c(ncn2CCCCCN2CCN(c3cccc(C(F)(F)F)c3)CC2)n(C)c1=O` [Compound F] had an ED30 of 25 mg/kg. Besides, the figures for the ED50 in data set [1] and in data set [4] (setting [8]) were 27.1 mg/kg and 63 mg/kg, respectively. The selectivity ratio was not below 30 in data set [2] (mouse, mice) and 10.5 in data set [2] (rat, rats). Besides, the minimal effective dose in data set [3] is 10 mg/kg.
The compound `Cn1cnc2c1c(=O)n(CCCCN1CCN(c3ccc(Cl)c(Cl)c3)CC1)c(=O)n2C` [Compound F', 1-(4-(4-(3,4-dichlorophenyl)piperazinyl-(1))-n-butyl)theobromine.2HCl] came in with an ED50 in data set [1] of 7.8 mg/kg. Moreover, in data set [2] (mouse, mice), the selectivity ratio lay in the range of 51 to 103.
As for `COc1cc(C)nc(-n2nc(C)cc2OC)n1` [Control drug I, 4-methoxy-2-(5-methoxy-3-methylpyrazol-1-yl)-6-methylpyrimidine, reference compound], the ED50 in data set [1] was 240 mg/kg; in data set [4] (setting [8]) it was not below 160 mg/kg. In addition, the selectivity ratio in data set [2] (mouse, mice) was 4.3; in data set [2] (rat, rats) it was not above 3. For the same compound, in data set [6], the “Acute toxicity LD50” value is given as 526 mg/kg. Further, the minimal effective dose in data set [3] came to 40 mg/kg.
For the compound `O=C(Cn1c(=O)sc2ccc(Cl)cc21)N1CCN(CCO)CC1` [Control drug II, 4-((5-chloro-2-oxo-3(2H)-benzothiazolyl)acetyl)-1-piperazineethanol, reference compound], the ED50 in data set [1] was 66 mg/kg; in data set [4] (setting [8]), not below 160 mg/kg. Besides, the “Acute toxicity LD50” value was 564 mg/kg in data set [7] and 3,600 mg/kg in data set [6]. For the same compound, the selectivity ratio in data set [2] (mouse, mice) is 8.5; in data set [2] (rat, rats), not above 23. In addition, in data set [3], the minimal effective dose amounted to 40 mg/kg.
In turn, `Cn1cnc2c1c(=O)n(CCCN1CCN(c3ccc(Cl)c(Cl)c3)CC1)c(=O)n2C` [Compound A', 1-(3-(4-(3,4-dichlorophenyl)piperazinyl-(1))-n-propyl)theobromine] yielded an ED30 in data set [5] of 25 mg/kg. Also, the ED50 in data set [1] is 7.2 mg/kg; in data set [4] (setting [8]), 40 mg/kg. The minimal effective dose in data set [3] stood at 40 mg/kg.
For `OC(CN1CCCCC1)c1cc(-c2ccccc2)on1` (stereo not shown) [Control drug III, 3-(1-hydroxy-2-piperadinoethyl)-5-phenylisoxazole, reference compound], the ED50 in data set [1] worked out at 120 mg/kg; in data set [4] (setting [8]), 160 mg/kg. Further, the “Acute toxicity LD50” value is 612 mg/kg in data set [7] and 1,978 mg/kg in data set [6]. The selectivity ratio in data set [2] (mouse, mice) turned out to be 5.1; in data set [2] (rat, rats), 12. Besides, in data set [3], the minimal effective dose is 160 mg/kg.
As to `Cn1c(=O)c2c(ncn2CCCCN2CCN(c3ccc(Cl)cc3)CC2)n(C)c1=O` [Compound D], the ED30 in data set [5] worked out at 25 mg/kg. In addition, the ED50 in data set [1] was 26 mg/kg; in data set [4], 68 mg/kg. The selectivity ratio amounted to 22 in data set [2] (mouse, mice) and 7.6 in data set [2] (rat, rats). Also, the minimal effective dose in data set [3] came out at 40 mg/kg.
Consider `Cc1cccc(N2CCN(CCCCCn3c(=O)c4c(ncn4C)n(C)c3=O)CC2)c1` [Compound G', 1-(5-(4-m-methylphenylpiperazinyl-(1))-n-pentyl)theobromine.2HCl], for which the ED30 in data set [5] came out at 25 mg/kg. The same compound registered an ED50 in data set [1] of 13.5 mg/kg. Also, the selectivity ratio in data set [2] (mouse, mice) amounted to 22.
Consider `Cc1cccc(N2CCN(CCn3c(=O)c4c(ncn4C)n(C)c3=O)CC2)c1C` [Compound B', 1-(2-(4-(2,3-dimethylphenyl)piperazinyl-(1))-ethyl)theobromine.2HCl], for which the ED50 in data set [1] is 2.6 mg/kg; in data set [4] (setting [8]), 20 mg/kg. Also, the selectivity ratio in data set [2] (mouse, mice) is 230; in data set [2] (rat, rats), not below 100.

The term ED50 denotes the midpoint of the dose-response relation.
